{
  "source": "ChEMBL document CHEMBL1127341",
  "about": "“Synthesis and biological evaluation of 5-[[3,5-bis(1,1-dimethylethyl)- 4-hydroxyphenyl]methylene]oxazoles, -thiazoles, and -imidazoles: novel dual 5-lipoxygenase and cyclooxygenase inhibitors with antiinflammatory activity” (J Med Chem, 1994)",
  "type_in_all_cases": "functional",
  "key": {"[1]": {"system": "Rattus norvegicus", "assay": "40% inhibition of induced edema in the rat mycobacterium foot-pad edema test"}, "[2]": {"system": "Rattus norvegicus", "assay": "Inhibition of rat carrageenan induced foot-pad edema at a dose of 30 mg/kg on peroral administration", "conditions": "route oral"}, "[3]": {"system": "Rattus norvegicus", "assay": "Inhibition of rat carrageenan induced foot-pad edema at a dose of 10 mg/kg on peroral administration", "conditions": "route oral"}},
  "data": [
    {"smiles": "Cc1ccc(Cl)c(Nc2ccccc2C(=O)[O-])c1Cl.O.[Na+]", "note": "[MECLOFENAMATE SODIUM]", "values": [
      {"measurement": "ID40", "setting": "[1]", "value": 0.4, "unit": "mg/kg"},
      {"measurement": "inhibition in vivo at 30 mg/kg", "setting": "[2]", "value": 41, "unit": "%"},
      {"measurement": "inhibition in vivo at 10 mg/kg", "setting": "[3]", "value": 34, "unit": "%"}
    ]}
  ]
}
